Results: patent publication US12545658B2, “Pyridine derivatives as calcium-activated chloride channel modulators” (TMEM16A LIMITED, priority 2019, dated 2026)

Target: T1, human TMEM16A (TMEM16Aabc variant) (Homo sapiens, UniProt Q5XXA6)
T1 construct: human TMEM16A (TMEM16Aabc variant)
T1 sequence (Q5XXA6 1-986): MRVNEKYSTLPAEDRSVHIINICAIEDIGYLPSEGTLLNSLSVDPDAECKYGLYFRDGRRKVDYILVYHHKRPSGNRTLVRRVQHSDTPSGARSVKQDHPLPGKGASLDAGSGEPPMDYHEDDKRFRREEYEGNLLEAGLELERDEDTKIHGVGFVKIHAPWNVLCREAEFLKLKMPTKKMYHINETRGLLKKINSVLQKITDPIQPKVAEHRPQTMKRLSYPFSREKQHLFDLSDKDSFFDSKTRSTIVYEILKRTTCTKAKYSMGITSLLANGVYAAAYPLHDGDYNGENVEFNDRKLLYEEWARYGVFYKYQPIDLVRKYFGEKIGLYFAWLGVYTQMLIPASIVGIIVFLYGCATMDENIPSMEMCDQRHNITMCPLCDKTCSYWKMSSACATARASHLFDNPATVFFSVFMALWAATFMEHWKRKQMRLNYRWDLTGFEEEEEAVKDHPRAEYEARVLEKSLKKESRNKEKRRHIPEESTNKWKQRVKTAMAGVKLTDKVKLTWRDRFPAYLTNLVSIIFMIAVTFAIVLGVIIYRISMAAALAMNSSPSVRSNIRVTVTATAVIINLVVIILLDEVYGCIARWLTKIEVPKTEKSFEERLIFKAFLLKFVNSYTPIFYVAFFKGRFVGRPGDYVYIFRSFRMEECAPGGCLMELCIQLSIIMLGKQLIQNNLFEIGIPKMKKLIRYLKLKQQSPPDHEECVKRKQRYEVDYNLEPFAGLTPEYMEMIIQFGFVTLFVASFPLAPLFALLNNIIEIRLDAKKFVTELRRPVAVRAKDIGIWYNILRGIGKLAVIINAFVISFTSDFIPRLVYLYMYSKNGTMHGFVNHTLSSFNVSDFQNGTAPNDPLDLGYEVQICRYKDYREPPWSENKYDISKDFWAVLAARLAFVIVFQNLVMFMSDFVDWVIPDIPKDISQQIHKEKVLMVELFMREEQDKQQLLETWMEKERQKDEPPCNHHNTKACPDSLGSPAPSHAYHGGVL
Assay: Automated whole-cell patch clamp (QPatch) TMEM16A potentiator assay in FRT cells stably expressing human TMEM16A
Type: cell-based
Settings: for QPatch TMEM16A % Potentiation @ 370 nM: 370 nM test compound; for QPatch TMEM16A % Potentiation @ 370 nM / QPatch TMEM16A % Potentation @ 3.3 μM: percentage increase of baseline TMEM16A current; for QPatch TMEM16A % Potentation @ 3.3 μM: 3.3 μM test compound; for EC50: FRT-TMEM16A cells, whole-cell patch clamp, peak current at +70 mV, intracellular calcium at EC20
Description: Fisher rat thyroid (FRT) cells stably expressing human TMEM16A (TMEM16Aabc variant; Dr Luis Galietta, Insituto Giannina, Italy) were cultured in T-75 flasks in Hams F-12 media with Coon's modification (Sigma) supplemented with 10% (v/v) foetal bovine serum, penicillin-streptomycin (10,000 U/mL/10000 μg/mL), G-418 (750 μg/mL), L-glutamine (2 mM) and sodium bicarbonate solution (7.5% v/v). At ˜90% confluence cells were harvested for experiments by detachment with a 2:1 (v/v) mixture of Detachin (BMS Biotechnology) and 0.25% (w/v) trypsin-EDTA.
FRT-TMEM16A cells were whole-cell patch clamped using an automated planar patch clamp system (Qpatch, Sophion). Briefly, once high resistance (GOhm) seals were established between the cells and the planar recording array the patch was ruptured using suction pulses to establish the whole-cell recording configuration of the patch clamp technique. The assay employed the following solutions (all reagents Sigma): Intracellular solution (mM): N-methyl-D-glucamine 130, CaCl2 18.2, MgCl2 1, HEPES 10, EGTA 10, BAPTA 20, Mg-ATP 2, pH 7.25, 325 mOsm with sucrose.
Extracellular solution (mM): N-methyl-D-glucamine 130, CaCl2 2, MgCl2 1, HEPES 10, pH 7.3, 320 mOsm with sucrose.
The intracellular solution buffers intracellular calcium at levels required to give ˜20% activation of the maximal TMEM16A mediated current (EC20 for calcium ions). Cells were voltage clamped at a holding potential of −70 mV and a combined voltage step (to +70 mV)/ramp (−90 my to +90 mV) was applied at 0.05 Hz. After a period of current stabilisation test compounds, solubilised in 100% (v/v) DMSO and subsequently diluted into extracellular solution, were applied to generate a cumulative concentration response curve. Each concentration of test compound was incubated for 5 minutes before addition of the next concentration. After the final concentration was tested a supramaximal concentration of either a known active positive modulator or the TMEM16A inhibitor, CaCCinhA01 (Del La Fuente et al, 2008) was added to define the upper and lower limits of the assay.
Compound activity was quantified by measuring the increase in current upon compound addition and expressing this as a percentage increase of baseline TMEM16A current level.
In FIG. 1, IBL equals baseline current, I[#1] equals the peak current during test compound concentration 1 incubation period and so on.
Peak TMEM16A current at +70 mV was plotted as a function of time over the assay period. Baseline current (IBL) was measured after a period of stabilisation. The increase in current for each compound addition was determined by taking the peak current during the incubation period and subtracting the current from the previous recording period and then expressing this as a percentage of the baseline current (% potentiation). For test compound concentration 1 in FIG. 1 this is: (I[#1]−IBL/IBL)×100 For each additional concentration tested the increase in current was determined by subtracting the current from the previous incubation period and normalising the baseline value—for test concentration 2 in FIG. 1 this is: (I[#2]−I[#1])/IBL)×100 The values for each test concentration were plotted as a cumulative function of concentration eg. for test concentration two this would be the sum of the peak changes measured during concentration one plus concentration two.

With `C#CC(C)(C)NC(=O)c1cc(NC(=O)Cc2cccc3[nH]ncc23)ccn1` [Compound A, reference compound] the “QPatch TMEM16A % Potentiation @ 370 nM” value was 43%, the “QPatch TMEM16A % Potentation @ 3.3 μM” value was 223% and the EC50 was 1930 nM.
In the case of `C#CC(C)(C)NC(=O)c1cc(NC(=O)Cc2ccc3cc[nH]c3c2)ccn1` [Example 1, N-(1,1-Dimethylprop-2-ynyl)-4-[[2-(1H-indol-6-yl)acetyl]amino]pyridine-2-carboxamide], the “QPatch TMEM16A % Potentiation @ 370 nM” value is reported as 50%, the “QPatch TMEM16A % Potentation @ 3.3 μM” value is reported as 38% and the EC50 is reported as 20 nM. For the same molecule, the “EC50 compared with Compound B” value (indole compounds versus comparator Compound B) was “lower EC50 values than Compound B”.
`O=C(Cc1ccc2cc[nH]c2c1)Nc1ccnc(C(=O)NC2(C(F)(F)F)CC2)c1` [Example 1.1, 4-[[2-(1H-indol-6-yl)acetyl]amino]-N-[1-(trifluoromethyl)cyclopropyl]pyridine-2-carboxamide] was tested, and the “QPatch TMEM16A % Potentiation @ 370 nM” value was 145%, the “QPatch TMEM16A % Potentation @ 3.3 μM” value was 173% and the EC50 was 70 nM. The “maximum potentiation of TMEM16A compared with Compound B” value (versus comparator Compound B) was “improved maximum potentiation of TMEM16A”.
With `CC(C)(C)NC(=O)c1cc(NC(=O)Cc2ccc3cn[nH]c3c2)ccn1` [Example 2, N-tert-Butyl-4-[[2-(1H-indazol-6-yl)acetyl]amino]pyridine-2-carboxamide] the “QPatch TMEM16A % Potentiation @ 370 nM” value was 87%, the “QPatch TMEM16A % Potentation @ 3.3 μM” value was 131% and the EC50 was 180 nM.
For `C#CC(C)(C)NC(=O)c1cc(NC(=O)Cc2ccc3cn[nH]c3c2)ccn1` [Example 3, N-(1,1-Dimethylprop-2-ynyl)-4-[[2-(1H-indazol-6-yl)acetyl]amino]pyridine-2-carboxamide], the “QPatch TMEM16A % Potentiation @ 370 nM” value was 68%, the “QPatch TMEM16A % Potentation @ 3.3 μM” value was 96% and the EC50 was 20 nM.
In the case of `C#CC1(NC(=O)c2cc(NC(=O)Cc3ccc4cn[nH]c4c3)ccn2)CCCC1` [Example 4, N-(1-Ethynylcyclopentyl)-4-[[2-(1H-indazol-6-yl)acetyl]amino]pyridine-2-carboxamide], the “QPatch TMEM16A % Potentiation @ 370 nM” value is reported as 96%, the “QPatch TMEM16A % Potentation @ 3.3 μM” value is reported as 237% and the EC50 is reported as 10 nM.
For `CC(C)(NC(=O)c1cc(NC(=O)Cc2ccc3cn[nH]c3c2)ccn1)C(F)(F)F` [Example 4.1, 4-[[2-(1H-Indazol-6-yl)acetyl]amino]-N-(2,2,2-trifluoro-1,1-dimethyl-ethyl)pyridine-2-carboxamide], the “QPatch TMEM16A % Potentiation @ 370 nM” value was 96%, the “QPatch TMEM16A % Potentation @ 3.3 μM” value was 118% and the EC50 was 90 nM.
For `O=C(Cc1ccc2cn[nH]c2c1)Nc1ccnc(C(=O)NC2(C(F)(F)F)CC2)c1` [Example 4.2, 4-[[2-(1H-Indazol-6-yl)acetyl]amino]-N-[1-(trifluoromethyl)cyclopropyl]pyridine-2-carboxamide], the “QPatch TMEM16A % Potentiation @ 370 nM” value was 112%, the “QPatch TMEM16A % Potentation @ 3.3 μM” value was 155% and the EC50 was 100 nM.
With `CC1(NC(=O)c2cc(NC(=O)Cc3ccc4cn[nH]c4c3)ccn2)CC(F)(F)C1` [Example 4.3, N-(3,3-Difluoro-1-methyl-cyclobutyl)-4-[[2-(1H-indazol-6-yl)acetyl]amino]pyridine-2-carboxamide] the “QPatch TMEM16A % Potentiation @ 370 nM” value was 173%, the “QPatch TMEM16A % Potentation @ 3.3 μM” value was 226% and the EC50 was 50 nM.
In the case of `CC(C)(NC(=O)c1cc(NC(=O)Cc2ccc3cn[nH]c3c2)ccn1)C(F)F` [Example 5, N-(2,2-Difluoro-1,1-dimethyl-ethyl)-4-[[2-(1H-indazol-6-yl)acetyl]amino] pyridine-2-carboxamide], the “QPatch TMEM16A % Potentiation @ 370 nM” value is reported as 80%, the “QPatch TMEM16A % Potentation @ 3.3 μM” value is reported as 104% and the EC50 is reported as 110 nM.
In the case of `O=C(Cc1ccc2cn[nH]c2c1)Nc1ccnc(C(=O)NC2(C(F)(F)F)CCC2)c1` [Example 5.1, 4-[[2-(1H-Indazol-6-yl)acetyl]amino]-N-[1-(trifluoromethyl)cyclobutyl]pyridine-2-carboxamide], the “QPatch TMEM16A % Potentiation @ 370 nM” value is reported as 76%, the “QPatch TMEM16A % Potentation @ 3.3 μM” value is reported as 110% and the EC50 is reported as 150 nM.
For `O=C(Cc1ccc2cn[nH]c2c1)Nc1ccnc(C(=O)NC2CCCC2(F)F)c1` (centres unmarked) [Example 5.3, N-(2,2-Difluorocyclopentyl)-4-[[2-(1H-indazol-6-yl)acetyl]amino]pyridine-2-carboxamide], the “QPatch TMEM16A % Potentiation @ 370 nM” value was 69%, the “QPatch TMEM16A % Potentation @ 3.3 μM” value was 113% and the EC50 was 250 nM.
`CC(C)(C)NC(=O)c1cc(NC(=O)Cc2cc3[nH]ncc3cc2F)ccn1` [Example 6, N-tert-Butyl-4-[[2-(5-fluoro-1H-indazol-6-yl)acetyl]amino]pyridine-2-carboxamide] was tested, and the “QPatch TMEM16A % Potentiation @ 370 nM” value was 91%, the “QPatch TMEM16A % Potentation @ 3.3 μM” value was 164% and the EC50 was 230 nM.
`O=C(Cc1cc2[nH]ncc2cc1F)Nc1ccnc(C(=O)NC2(C(F)(F)F)CC2)c1` [Example 6.1, 4-[[2-(5-Fluoro-1H-indazol-6-yl)acetyl]amino]-N-[1-(trifluoromethyl)cyclopropyl]pyridine-2-carboxamide] was tested, and the “QPatch TMEM16A % Potentiation @ 370 nM” value was 107%, the “QPatch TMEM16A % Potentation @ 3.3 μM” value was 153% and the EC50 was 140 nM.
For `O=C(Cc1cc2[nH]ncc2cc1F)Nc1ccnc(C(=O)NC2CCCC2(F)F)c1` (centres unmarked) [Example 6.2, N-(2,2-Difluorocyclopentyl)-4-[[2-(5-fluoro-1H-indazol-6-yl)acetyl]amino]pyridine-2-carboxamide], the “QPatch TMEM16A % Potentiation @ 370 nM” value was 46%, the “QPatch TMEM16A % Potentation @ 3.3 μM” value was 70% and the EC50 was 310 nM.
In the case of `O=C(Cc1cc(Cl)c2cn[nH]c2c1)Nc1ccnc(C(=O)NC2(C(F)(F)F)CC2)c1` [Example 6.3, 4-[[2-(4-Chloro-1H-indazol-6-yl)acetyl]amino]-N-[1-(trifluoromethyl)cyclopropyl]pyridine-2-carboxamide], the “QPatch TMEM16A % Potentiation @ 370 nM” value is reported as 172%, the “QPatch TMEM16A % Potentation @ 3.3 μM” value is reported as 220% and the EC50 is reported as 110 nM.
